Assay results reported in patent US20060263302A1, “Systemic oxygenation via gastric perfusion with perfluorocarbon (PFC)” (Thomas Jefferson University, priority 2005, published 2006).
Values joined by “and” are separate entries in the source; they are usually repeats but may differ in a detail not shown here. Equal values may be shown once.

Key:
[1] = Properties of perfluorocarbon (physical characteristics of neat F44E); type: physicochemical
Excerpt: Perfluorocarbon: Seventy liters of neat perfluorocarbon F44E (trans-bis-perfluorobutyl ethylene) were provided as a generous gift from Neuron Therapeutics, Inc (Malvern, Pa.). This perfluorocarbon is clear, colorless, odorless, immiscible with water or blood and has the physical characteristics listed in Table 1.

Sus scrofa pigs = assay: Peritoneal perfusion with perfluorocarbon in pigs made hypoxic by ventilation with subatmospheric oxygen; arterial blood gases; type: in vivo; conditions: for Fitted mean PaO2 / Observed mean PaO2: pigs, peritoneal perfusion; for Fitted treatment effect: mean PaO2 difference perfluorocarbon versus saline / Observed treatment effect: mean PaO2 difference perfluorocarbon versus saline: oxygenation on
Protocol: Animals: Fifteen Sus scrofa pigs weighing 45-55 kg were used for the experiments. All experiments were approved by the Thomas Jefferson University Institutional Animal Care and Use Committee. The care and handling of all animals were in accord with United States Department of Agriculture guidelines.
Surgical procedure: The animals were induced with Telazol (Fort Dodge Animal Health, Fort Dodge, Iowa) 5 mg/kg injected intramuscularly (IM), after which an intravenous catheter was placed in an ear vein and 30 mg of Propofol (Baxter, Irvine, Calif.) was injected intravenously (IV). The animals were then intubated with a 7.5 mm internal diameter endotracheal tube (Mallinckrodt Inc., St. Louis, Mo.) and maintained with isoflurane inhalation anesthesia, using intermittent Propofol injections for any evidence of discomfort or awakening. The animals were placed on a Harvard Apparatus Dual Phase Control Respirator Pump (South Natick, Mass.) mechanical ventilator with a tidal volume of 10-15 ml/kg and a rate of 12-15 breaths per minute. Prior to subjecting the animal to hypoxia, the respiratory rate was occasionally adjusted in an effort to maintain a neutral pH, as determined by arterial blood gas measurements. Electrocardiography leads were placed in the standard 3-lead positions on each animal, starting at the time of induction, and continuously monitored throughout the experiment. Oxygen saturation was also measured with a Vet/Ox Plus 4700 (SDI, Waukesha, Wis.) pulse oxymeter with the probe placed on the animal's tongue. Once under general anesthesia and in the supine position, a cervical cut down was performed through which a Swan-Ganz right heart catheter (Edwards Lifesciences, Irvine, Calif.) was placed via the internal jugular vein and an 18-gauge angiocatheter was placed in the common carotid artery for access to the central arterial system for blood pressure monitoring and arterial blood gas measurements. Both of these lines were transduced using a pressure monitoring kit with a TruWave pressure transducer (Edwards Lifesciences, Irvine, Calif.) and connected to a Hewlett-Packard Monitor 78834A (Palo Alto, Calif.) system for monitoring the systemic and pulmonary arterial pressures and the central venous pressure.
After placement of the arterial and venous lines, a lower midline laparotomy was performed. A 28 French venous return cannula catheter (Edwards Lifesciences, Irvine, Calif.) was placed in the left paracolic gutter and brought out through a separate site in the left lower quadrant and sutured in place using a number 1 Prolene suture (Ethicon, Sommerville, N.J.). A 42 French venous return cannula (Edwards Lifesciences, Irvine, Calif.) was placed in an identical manner on the right side, with the tip lodged above the dome of the liver. The abdomen was then closed in a single layer with a running number I Prolene. In the first two animals in each experimental group, an additional 14 French catheter (Edwards Lifesciences, Irvine, Calif.) was placed near the midline for pressure monitoring purposes and was maintained in a vertical attitude, attached to a ruler such that the height of the column of fluid could be easily monitored. Peritoneal pressure measurements in centimeters of H2O were calculated by multiplying column height by the correction factor 1.67 (specific gravity of trans-bis-perfluorobutyl ethylene).
Hypoxia circuit: A Matrx anesthesia machine (Orchard Park, N.Y.) was used for blending gasses and isoflurane inhaled anesthetic. Pure nitrogen, rather than filtered room air, was mixed with pure oxygen to achieve subatmospheric concentrations of oxygen. The animal was ventilated using a standard bifurcated anesthesia circuit to maintain unidirectional flow of gasses. A Datex machine (Puritan-Bennett Corporation, Overland Park, Kans.) was attached to the ventilation circuit and allowed real-time monitoring of the oxygen and anesthetic agent concentration. […]

With `FC(F)(F)C(F)(F)C(F)(F)C(F)(F)/C=C/C(F)(F)C(F)(F)C(F)(F)C(F)(F)F` [perfluorocarbon, trans-bis-perfluorobutyl ethylene] the “specific gravity (correction factor for peritoneal pressure)” value [1] was 1.67, the Carbon dioxide capacity ([1]; neat perfluorocarbon F44E) was 200 vol % and the Oxygen capacity ([1]; neat perfluorocarbon F44E) was 50 vol %. For the same compound, the Specific gravity ([1]; neat perfluorocarbon F44E) was 1.668 g/cc, the “Fitted mean PaO2” value (Sus scrofa pigs; FiO2 10%, O2 Off) was 25.7 mm Hg and the “Observed mean PaO2” value (Sus scrofa pigs; FiO2 10%, O2 Off) was 28.0 mm Hg. For the same compound, the “Fitted mean PaO2” value (Sus scrofa pigs; FiO2 10%, O2 On) was 35.2 mm Hg, the “Observed mean PaO2” value (Sus scrofa pigs; FiO2 10%, O2 On) was 36.7 mm Hg and the “Observed mean PaO2” value (Sus scrofa pigs; FiO2 10%, O2 On, listed as oxygenated perfluorocarbon) was 36.7±8.4 mm Hg. The “Fitted mean PaO2” value (Sus scrofa pigs; FiO2 12%, O2 Off) was 38.5 mm Hg, the “Observed mean PaO2” value (Sus scrofa pigs; FiO2 12%, O2 Off) was 37.1 mm Hg and the “Fitted mean PaO2” value (Sus scrofa pigs; FiO2 12%, O2 On) was 44.5 mm Hg. The “Observed mean PaO2” value (Sus scrofa pigs; FiO2 12%, O2 On) was 43.8 mm Hg, the “Fitted mean PaO2” value (Sus scrofa pigs; FiO2 14%, O2 Off) was 51.3 mm Hg and the “Observed mean PaO2” value (Sus scrofa pigs; FiO2 14%, O2 Off) was 48.8 mm Hg. The “Fitted mean PaO2” value (Sus scrofa pigs; FiO2 14%, O2 On) was 53.9 mm Hg, the “Observed mean PaO2” value (Sus scrofa pigs; FiO2 14%, O2 On) was 55.3 mm Hg and the “Observed mean PaO2” value (Sus scrofa pigs; FiO2 14%, O2 On, listed as oxygenated perfluorocarbon) was 55.3±7.6 mm Hg and 55.3 mm Hg. The “arterial oxygen saturation (SaO2)” value (Sus scrofa pigs; FiO2 14%, oxygenated perfluorocarbon perfusion (73% with oxygenated saline)) was 89%, the “Fitted mean PaO2” value (Sus scrofa pigs; FiO2 16%, O2 Off) was 64.2 mm Hg and the “Observed mean PaO2” value (Sus scrofa pigs; FiO2 16%, O2 Off) was 63.7 mm Hg. The “Fitted mean PaO2” value (Sus scrofa pigs; FiO2 16%, O2 On) was 63.3 mm Hg, the “Observed mean PaO2” value (Sus scrofa pigs; FiO2 16%, O2 On) was 64.4 mm Hg and the “Fitted mean PaO2” value (Sus scrofa pigs; FiO2 18%, O2 Off) was 77.0 mm Hg. The “Observed mean PaO2” value (Sus scrofa pigs; FiO2 18%, O2 Off) was 79.8 mm Hg, the “Fitted mean PaO2” value (Sus scrofa pigs; FiO2 18%, O2 On) was 72.7 mm Hg and the “Observed mean PaO2” value (Sus scrofa pigs; FiO2 18%, O2 On) was 68.7 mm Hg. The “Observed mean PaO2” value (Sus scrofa pigs; FiO2 18%, O2 On, listed as oxygenated perfluorocarbon) was 68.7±10.4 mm Hg, the group-by-oxygenation interaction effect (Sus scrofa pigs; average across FiO2 values) was “about 6.4 mmHg” and the “average mean PaO2 difference perfluorocarbon versus saline” value (Sus scrofa pigs; oxygenation off, across all FiO2 values) was 6.4 mmHg. The “Fitted treatment effect: mean PaO2 difference perfluorocarbon versus saline” value (Sus scrofa pigs; FiO2 10%) was 9.6 mmHg, the “Observed treatment effect: mean PaO2 difference perfluorocarbon versus saline” value (Sus scrofa pigs; FiO2 10%) was 8.1 mmHg and the “Fitted treatment effect: mean PaO2 difference perfluorocarbon versus saline” value (Sus scrofa pigs; FiO2 12%) was 11.4 mmHg. For the same compound, the “Observed treatment effect: mean PaO2 difference perfluorocarbon versus saline” value (Sus scrofa pigs; FiO2 12%) was 12.4 mmHg, the “Fitted treatment effect: mean PaO2 difference perfluorocarbon versus saline” value (Sus scrofa pigs; FiO2 14%) was 13.2 mmHg and the “Observed treatment effect: mean PaO2 difference perfluorocarbon versus saline” value (Sus scrofa pigs; FiO2 14%) was 15.9 mmHg. The “Fitted treatment effect: mean PaO2 difference perfluorocarbon versus saline” value (Sus scrofa pigs; FiO2 16%) was 15.0 mmHg, the “Observed treatment effect: mean PaO2 difference perfluorocarbon versus saline” value (Sus scrofa pigs; FiO2 16%) was 18.2 mmHg and the “Fitted treatment effect: mean PaO2 difference perfluorocarbon versus saline” value (Sus scrofa pigs; FiO2 18%) was 16.8 mmHg. The “Observed treatment effect: mean PaO2 difference perfluorocarbon versus saline” value (Sus scrofa pigs; FiO2 18%) was 8.2 mmHg and the “arterial or venous partial pressure of carbon dioxide (PaCO2 or PvCO2), difference between groups” value (Sus scrofa pigs; perfluorocarbon versus saline, irrespective of FiO2) was “No statistically significant difference”.
